Data: patent US20160263140A1, “USE OF COMPOUNDS ACTIVATING SIRT-3 FOR MIMICKING EXERCISE” (President and Fellows of Harvard College, priority 2007, published 2016)
Entries after “also recorded” stand apart in the source; their conditions may differ.

Key:
HEK293 cells [1] = assay: Cell death assay after MMS treatment (FACS, propidium iodide); format: cell-based; conditions: for effect on Nampt-mediated cell protection/survival against MMS: HEK293 cells stably overexpressing Nampt, MMS treatment, sirtinol 100 μM
Protocol: Human embryonic kidney (HEK293) and human fibrosarcoma HT1080 cell lines were obtained from ATCC and grown in complete DMEM medium with 10% FBS and 100 μg/ml penicillin/streptomycin. To generate Nampt overexpression or empty vector stable clones, hNAMPT/pcDNA or pcDNA empty vector were transfected into HEK293 or HT1080 cells and selected with 0.5-1.0 mg/ml geneticin. To generate Nampt knockdown cells, siRNA/NAMPT/pMSCV or pMSCV empty vector were transfected into HT1080 cells, and stable clones were selected with 500 ng/ml puromycin. Primary neonatal rat cardiomyocytes were prepared as described previously (Matsui et al., 1999). Isolated cardiomyocytes were grown in complete medium (RPMI 1640, 5% fetal calf serum, 10% horse serum) to 80% confluence before cells were subjected to hypoxia and/or serum starvation. For hypoxia, medium was changed to RPMI 1640 with or without serum saturated with 95% N2/5% CO2 and then cells were placed in a 37° C. airtight box saturated with 95% N2/5% CO2 for 18 hours. O2 concentrations were <0.1% (Ohmeda oxygen monitor, type 5120). To serum starve HT1080, cells were grown in DMEM medium containing no serum. Cells were harvested after 26 h of serum starvation and Nampt expression was analyzed by Western blotting.
(§1) HEK293 and HT1080 cells at less than 85% confluency were treated with MMS (1.2 mM) for 6-8.5 h and 8-17 h, respectively. Transiently transfected cells were washed 3 times with PBS to remove residual transfection reagents before treating with MMS. HEK293 cells and HT1080 cells were exposed to etoposide for 72 h or 46 h, at 120 or 40 μM, respectively. HT1080 cells were exposed to camptothecin at 14 μM for 23 h. After drug treatments, cells were harvested by trypsinization, pelleted by centrifugation and resuspended in PBS containing 3% FBS. Cell death was analyzed by FACS using propidium iodide (PI) staining. Cells transiently-transfected with mNAMPT/MSCV, SIRT1-7 siRNA, Nmnat-3, or hMFT siRNA oligos and co-transfected with FAM-labeled scrambled siRNA oligos, percent cell death was determined by as the proportion of PUGFP or PIFAM positive cells versus the total number of cells with green fluorescence.

[2] = system: mitochondria from fresh rat livers; assay: NAD+ levels in isolated liver mitochondria by HPLC-MALDI-MS; conditions: for change of mitochondrial NAD+ levels (in words): FK866 10 nM and/or MMS 1:1000, 30 min at 37° C.
Protocol: Unless otherwise stated, fractionation of cultured cells was performed using a differential centrifugation and sucrose gradient procedure with slight modifications (Schwer et al., 2002). For drug treatment of mitochondria, fresh mitochondria were obtained from livers excised from fed young male rats. Half of the liver homogenate was used for mitochondrial isolation using a commercially available kit as described by manufacturer's instructions, designated Protocol 1 (Pierce Mitochondrial Isolation kit, Rockford, Ill.). The other half of the original homogenate was subjected to a differential centrifugation protocol to isolate mitochondria (Protocol 2). Mitochondria (500 μl) were added to a 48-well plate and treated with methylmethane sulfonate (MMS) at 1:1000 dilution and/or FK866 (10 nM) for 30 min at 37° C. Suspensions were spun down for 1 min at 14,000 rpm at 4° C. and pellets were stored at −80° C. prior to NAD^+ analysis by HPLC-MALDI-MS. Detailed protocols are described in Supplemental Information.
NAD^+ was determined by as described previously (Sauve and Schramm, 2003), with the following modifications. HEK293 or HT1080 cells were harvested by trypsinization and counted by haemocytometer. NAD^+ was extracted from whole cells or mitochondrial pellets by adding 10% perchloric acid and sonicating for 5 min on ice. The reference standard ^18O-NAD^+ (typically […]) was then added to the sample. After mixing well, samples were centrifuged for 3 min then neutralized with NaOH. NAD^+ in the supernatant (100 μL sample) was separated from other cellular components by HPLC. NAD^+ peaks were collected according to the standards' retention time and dried with a lyophilizor. […] The volume of mitochondrial pellets was calculated by considering the density of the mitochondria pellets to be 1.0 μL/mg. Total cellular NAD^+ concentrations were calculated by dividing the quantity of NAD^+ per cell by the mean cell volume (MCV) as measured by a Coulter counter, which for HT1080 was […] and for HEK293 was […]. […]

HEK293 cells [3] = assay: Total cellular NAD+ by HPLC-MALDI-MS after MMS; format: cell-based, human; conditions: 1.2 mM MMS, 2 and 4 h, irrespective of Nampt levels
Protocol: as §1
NAD^+ was determined by as described previously (Sauve and Schramm, 2003), with the following modifications. HEK293 or HT1080 cells were harvested by trypsinization and counted by haemocytometer. NAD^+ was extracted from whole cells or mitochondrial pellets by adding 10% perchloric acid and sonicating for 5 min on ice. […] The volume of mitochondrial pellets was calculated by considering the density of the mitochondria pellets to be 1.0 μL/mg. […]

GLUT4 = GLUT4 protein expression in SIRT3-expressing C2C12 myotubes (Western blot); format: cell-based, murine; conditions: 40 μM, 3-hour treatment
Protocol: (§2) C2C12 myocytes and BOSC23 cells were cultured in Dulbecco's modified Eagle's medium containing 10% bovine calf serum. For C2C12 differentiation, at confluence, cells were incubated in Dulbecco's modified Eagle's medium with 2% horse serum (Hyclone, Logan, Utah) for three days. Inhibition of AMPK in selected studies was achieved by adding compound C (6-[4-(2-Piperidin-1-yl-ethoxy)-phenyl)]-3-pyridin-4-yl-pyrrazolo[1,5-a]-pyrimidine, Merck) (31) to the media for 3 hours at a final concentration of 40 μM. […]

AMPK = AMPK phosphorylation in C2C12 myotubes (Western blot); format: cell-based, murine; conditions: 40 μM, 3-hour treatment; vector- and SIRT3-transfected C2C12 myotubes
Protocol: as §2

O=C(/C=C/c1cccnc1)NCCCCC1CCN(C(=O)c2ccccc2)CC1 [FK866]
effect on Nampt-mediated cell protection/survival against MMS (HEK293 cells [1]): prevented cell protection by Nampt overexpression; also recorded: the effect is blocked
change of mitochondrial NAD+ levels (in words) [2]: even larger decreases in mitochondrial NAD+ levels; also recorded: reduced

COS(C)(=O)=O [MMS, methylmethane sulfonate]
total NAD+ concentration after MMS treatment (HEK293 cells [3]): < 100 µM
cell death caused by MMS treatment (HEK293 cells [1]; 1.2 mM MMS, vector control cells): death of about half the vector control cells
change of mitochondrial NAD+ levels (in words) [2]: reduced
reduction of mitochondrial NAD+ levels ([2]; MMS 1:1000 dilution, 30 min at 37° C.): ~2 fold

c1cc(-c2cnn3cc(-c4ccc(OCCN5CCCCC5)cc4)cnc23)ccn1 [compound C]
ability of SIRT3 to increase GLUT4 protein expression (GLUT4): completely abolished
AMPK phosphorylation (AMPK): decreased AMPK phosphorylation

CC(NC(=O)c1ccccc1/N=C/c1c(O)ccc2ccccc12)c1ccccc1 (stereo not shown) [sirtinol]
effect on Nampt-mediated cell protection/survival against MMS (HEK293 cells [1]): did block the ability of Nampt overexpression to protect cells

O=C1NCCc2c(OCCCCN3CCCCC3)cccc21 [DPQ, 3,4-dihydro-5-[4-(1-piperidinyl)butoxy]-1(2H)-isoquinolinone]
extent of MMS-induced cell death (HEK293 cells [1]; HEK293 cells, MMS, 30 μM DPQ): greatly reduced; also recorded: Attenuated
